In PMC9135253, “Potential of phenothiazines to synergistically block calmodulin and reactivate PP2A in cancer cells” (PLoS ONE, 2022):
Several values for one entry are separate records, joined by “and”; a condition that tells them apart may be missing. Identical values can stand only once. Like-named read-outs stand apart in the source and are kept apart here.

Assays:
Type in all cases: cell-based
[1] = tested on: caspase-3/7 activity in MDA-MB-231 cells; assay: Caspase-3/7Glo assay; settings: 24 h
Text: (§1) Negative values (shaded red) indicate sensitivity of the cell line proliferation to the knockdown of shown genes, whereas positive scores (shaded blue) indicate insensitivity. (B) IC50 values for indicated compounds in Ras pathway mutant cell lines NCI-H358, MDA-MB231 and A375 grown as 3D spheroids under serum free conditions. […] Statistical comparisons were done using the average values across all three cell lines. […] Positive scores indicate synergistic drug interactions whereas negative scores would denote antagonistic drug interactions. A score of zero would indicate no antagonistic or synergistic effect. (D) Flow cytometric analysis of apoptosis in MDA-MB-231 cells. […] Benzethonium chloride and DMSO treated cells were used as positive and negative controls, respectively, for setting the gates. Percentage of total apoptotic cells (early and late stage) from two biological repeats (mean ± SD) is presented. Statistical analysis was performed using Fisher’s exact test comparing the total number of viable and apoptotic cells from two biological repeats. (E) Effect of inhibitors on cellular apoptosis studied using Caspase-3/7Glo assay. […] The caspase-3/7 activity was measured as a luminescence read-out and normalized to the vehicle control, 0.05% (v/v) DMSO. […] GAPDH detection was used as loading control.

[2] = tested on: pERK/ERK in MIA PaCa-2 cells; assay: Western blot of MAPK signaling output (pERK/ERK)
[3] = tested on: c-MYC in MDA-MB-231 cells; assay: Western blot of c-MYC expression; settings: 24 h
[4] = tested on: H-RasG12V (Rluc8-/GFP2-tagged) in HEK-293 EBNA cells; assay: H-RasG12V nanoclustering-BRET assay; settings: for H-RasG12V BRET: compounds 20 μM, FTI-277 1 μM, OphA 2.5 μM, 24 h
[5] = tested on: MDA-MB-231 (KRAS-G13D) 3D spheroids; assay: 3D spheroid formation assay (alamarBlue), MDA-MB-231; settings: read-out: IC50 values
Method: (§2) 3D spheroid formation assays were performed in 96-well low-attachment, suspension culture plates (cat. no. 655185, Cellstar, Greiner Bio-One) under serum free conditions. About 1000 cells per well were seeded in 50 μL RPMI medium (cat. no. 52400–025, Gibco, ThermoFisher Scientific) containing 0.5% (v/v) MethoCult (cat. no. SF H4636, Stemcell technologies), 1X B27 (cat. no. 17504044, Gibco, ThermoFisher Scientific), 25 ng/mL EGF (cat. no. E9644, Sigma-Aldrich) and 25 ng/ mL FGF (cat. no. RP-8628, ThermoFisher Scientific). Cells were cultured for 3 days and then treated with compounds or vehicle control (DMSO 0.1% (v/v) in growth medium) for another 3 days. The cells were supplemented with fresh growth medium on the third day together with the drug treatment. Spheroid formation efficiency was analyzed by alamarBlue assay reagent (cat. no. DAL1100, ThermoFisher Scientific).
(§3) A 10% (v/v) final volume of alamarBlue reagent was added to each well of the plate and incubated for 4 h at 37°C. Then the fluorescence intensity (λexcitation 560 ± 5 nm and λemission 590 ± 5 nm) was measured using the FLUOstar OPTIMA plate reader (BMG Labtech, Germany).
as §1, with “(A) Heatmap of ATARiS gene sensitivity scores of two KRAS dependent cell lines (NCI-H358 and MDA-MB-231) and a BRAF dependent cell line (A375). Negative” for “Negative”

[6] = tested on: NCI-H358 (KRAS-G12C) 3D spheroids; assay: 3D spheroid formation assay (alamarBlue), NCI-H358; settings: read-out: IC50 values
Method: as §2, §3
as §1, with “(A) Heatmap of ATARiS gene sensitivity scores of two KRAS dependent cell lines (NCI-H358 and MDA-MB-231) and a BRAF dependent cell line (A375). Negative” for “Negative”

[7] = tested on: MDA-MB-231 cells; assay: Flow cytometry-based apoptosis assay (Annexin V-FITC / 7-AAD); settings: for apoptotic cells (%): DT-061 10 μM, calmidazolium 5 μM or combination, 24 h
Method: MDA-MB-231 cells were grown for 24 h in complete RPMI medium. The next day the cells were treated with inhibitors for 24 h. […] The cells were labelled using the Annexin V-FITC / 7-AAD apoptosis-detection kit (Beckman-Coulter, cat. no. B60224-AB) according to the manufacturer’s instruction.
as §1

[8] = tested on: A375 (BRAF-V600E) 3D spheroids; assay: 3D spheroid formation assay (alamarBlue), A375
Method: as §2, §3
as §1, with “(A) Heatmap of ATARiS gene sensitivity scores of two KRAS dependent cell lines (NCI-H358 and MDA-MB-231) and a BRAF dependent cell line (A375). Negative” for “Negative”

[9] = tested on: K-RasG12V (Rluc8-/GFP2-tagged) in HEK-293 EBNA cells; assay: K-RasG12V nanoclustering-BRET assay; settings: for effect on the RasG12V-BRET signals (in words): K-RasG12V and H-RasG12V biosensors; for K-RasG12V BRET: compounds 20 μM, FTI-277 1 μM, OphA 2.5 μM, 24 h
[10] = tested on: MDA-MB-231 cells; assay: 2D cell viability assay (alamarBlue), MDA-MB-231; settings: MDA-MB-231, 72 h
[11] = tested on: MIA PaCa-2 cells; assay: 2D cell viability assay (alamarBlue), MIA PaCa-2; settings: MIA PaCa-2, 72 h
[12] = tested on: HEK-293 EBNA cells; assay: 2D cell viability assay (alamarBlue), HEK-293 EBNA; settings: 72 h
[13] = DT-061 5 μM, calmidazolium 5 μM, combination 5 μM each, staurosporine 1 μM, normalized to DMSO, replicates
[14] = MIA PaCa-2 + EGF, same treatments, mean
[15] = 10 μM, MDA-MB-231, replicates N1-N4
[16] = 20 μM, MDA-MB-231, replicates N1-N4, values marked * excluded
[17] = H-RasG12V nanoclustering-BRET dose response (0.1–80 μM; OphA 0.3–20 μM), replicates
[18] = H-RasG12V nanoclustering-BRET, mean
[19] = K-RasG12V nanoclustering-BRET dose response (0.1–80 μM; OphA 0.3–20 μM), replicates
[20] = K-RasG12V nanoclustering-BRET, mean

Row | SMILES | caspase 3/7 activity (fold change) [1, 13] | caspase 3/7 activity (fold change) ([1]; same treatments, mean) | normalized pERK/ERK ratio % [2, 14] [%] | c-MYC/Vinculin relative expression [3, 15] | c-MYC/Vinculin relative expression ([3]; 10 μM, Mean (DMSO 1.78)) | c-MYC/Vinculin relative expression [3, 16] | c-MYC/Vinculin relative expression ([3]; 20 μM, Mean (DMSO 1.48)) | DSS3 BRET score [4, 17] | DSS3 BRET score [4, 18] | H-RasG12V BRET ([4]; mean) | effect on the RasG12V-BRET signals (in words) [9] | DSS3 BRET score [9, 19] | DSS3 BRET score [9, 20] | K-RasG12V BRET ([9]; mean) | also measured
1 | CN[C@@H]1C[C@H]2O[C@@](C)([C@@H]1OC)n1c3ccccc3c3c4c(c5c6ccccc6n2c5c31)C(=O)NC4 [staurosporine] | 5.7754 fold change and 5.5715 fold change and 6.4904 fold change and 6.254 fold change | 6.02 | – | – | – | – | – | – | – | – | – | – | – | – | –
2 | O=S(=O)(N[C@@H]1CCC[C@H](N2c3ccccc3Oc3ccccc32)[C@H]1O)c1ccc(OC(F)(F)F)cc1 [DT-061] | 0.9556 fold change and 1.016 fold change | 0.99 | 73.35 | 1.352 and 1.842 and 0.8895 and 1.57 | 1.41 | 1.784* and 1.955* and 0.7599 and 0.9549 | 0.86 | 0.2 and 0.4 | 0.3 | 100.52 | Neither the PP2A activator DT-061, nor Flu had an effect | 0.6 and 1 | 0.8 | 100.53 | normalized pERK/ERK ratio % ([2]; MIA PaCa-2 + EGF, 2 h, trametinib 1 μM, AMG-510 1 μM, calmidazolium 20 μM, DT-061 20 μM, combination each 10 μM, fluphenazine mustard 20 μM, replicates N1-N3): 84.4108% and 54.7097% and 80.94%; H-RasG12V BRET ([4]; A/D plasmid ratio 4/1, individual replicates N1.1-N2.4): 100.79 and 100.058 and 101.294 and 101.06 and 100.674 and 100.693 and 99.8758 and 99.7238; IC50 ([5]; Homo sapiens, MDA-MB-231, 72 h, MDA-MB-231 3D spheroids, serum free, 3 days treatment, replicates N1, N2): 3000 nM; IC50 ([5]; Homo sapiens, MDA-MB-231, MDA-MB-231 3D spheroids, Mean, n = 2): 3050 nM; IC50 ([5]; MDA-MB-231 3D spheroids, serum free, 3 days treatment, replicates N1, N2): 3100 nM; IC50 ([6]; Homo sapiens, NCI-H358, 72 h, NCI-H358 3D spheroids, serum free, 3 days treatment, replicates N1, N2): 2400 nM; IC50 ([6]; Homo sapiens, NCI-H358, NCI-H358 3D spheroids, Mean, n = 2): 2650 nM; IC50 ([6]; NCI-H358 3D spheroids, serum free, 3 days treatment, replicates N1, N2): 2890 nM; apoptotic cells (%) ([7]; early and late stage, replicates N1, N2): 17.3843% and 7.228%; apoptotic cells (%) ([7]; mean): 12.31%; apoptotic cell population ([7]; MDA-MB-231, 24 h): 12%; IC50 ([8]; A375 3D spheroids, serum free, 3 days treatment, replicates N1, N2): 2700 nM; IC50 ([8]; Homo sapiens, A-375, 72 h, A375 3D spheroids, serum free, 3 days treatment, replicates N1, N2): 1500 nM; IC50 ([8]; Homo sapiens, A-375, A375 3D spheroids, Mean, n = 2): 2100 nM; K-RasG12V BRET ([9]; A/D plasmid ratio 4/1, individual replicates N1.1-N3.4): 102.439 and 101.315 and 102.277 and 100.953 and 98.6605 and 100.047 and 101.073 and 97.4843
3 | FC(F)(F)c1ccc2c(c1)N(CCCN1CCN(CCCl)CC1)c1ccccc1S2 [fluphenazine mustard] | – | – | 40 | 0.7502 and 0.7758 and 0.7975 and 1.298 | 0.91 | 1.798* and 1.478 and 1.405 and 0.9115 | 1.26 | 13.1 and 5.3 and 9.9 and 9.6 | 9.48 | 65.64 | even stronger effect than CMZ | 17.9 and 3.8 and 4.3 and 7 and 12.9 | 9.18 | 72.64 | 2D monolayer DSS3 ([10]; Mean): 32.27; 2D monolayer DSS3 ([10]; replicates N1-N3): 27.5 and 31.9 and 37.4; normalized pERK/ERK ratio % [2]: 46.7324% and 34.232% and 39.0258%; 2D monolayer DSS3 ([11]; Mean): 65.73; 2D monolayer DSS3 ([11]; replicates N1-N3): 64.1 and 65.3 and 67.8; 2D monolayer DSS3 ([12]; Mean): 5.4; 2D monolayer DSS3 ([12]; replicates N1-N3): 6.1 and 5.1 and 5
